Data taken from US7250521B2, “Method for production of Δ1-pyrrolines” (Bayer CropScience Aktiengesellschaft, priority 2001, dated 2007).

Test: logP determination by HPLC on reverse-phase column (C 18), EEC directive 79/831 Annex V.A8
Assay type: physicochemical
Protocol: In the acidic range, the determination is carried out at pH 2.3 using the mobile phases 0.1% aqueous phosphoric acid and acetonitrile; linear gradient from 10% acetonitrile to 90% acetonitrile.
In the neutral range, the determination is carried out at pH 7.5 using the mobile phases 0.01 molar aqueous phosphate buffer solution and acetonitrile; linear gradient from 10% acetonitrile to 90% acetonitrile.

[1] = reverse-phase HPLC column (C 18), pH 2.3, acidic range, pH 2.3; 0.1% aqueous phosphoric acid/acetonitrile gradient; 43° C.; values marked a)
[2] = reverse-phase HPLC column (C 18), pH 7.5, neutral range, pH 7.5; 0.01 molar aqueous phosphate buffer/acetonitrile gradient; 43° C.; values marked b)

| chromatographic logP [1] | chromatographic logP [2] | Compound |
| --- | --- | --- |
| 2.31 |  | Cc1ccccc1C1=NC(c2ccc(C(C)(C)C)cc2)CC1 (stereo not shown) [Example 27] |
| 1.97 | 3.52 | COc1ccc(C2CCC(c3ccccc3Cl)=N2)cc1F (stereo not shown) [Example 40] |
| 2.52 |  | CC(C)(C)OC(=O)N1C(=O)CCC1c1ccccc1 (stereo not shown) [III-2] |
| 2.96 |  | O=C1CCC(c2ccc(-c3ccc(OC(F)(F)F)cc3)cc2)N1 (stereo not shown) [Example V-27] |
| 3.77 | 5.35 | Brc1ccccc1C1=NC(c2ccc(CCc3ccccc3)cc2)CC1 (stereo not shown) [Example 88] |
| 2.69 |  | CC(C)(C)OC(=O)N1C(=O)CCC1c1ccc(F)cc1F (stereo not shown) [III-16] |
| 2 | 3.68 | Fc1ccc(C2CCC(c3ccccc3Cl)=N2)cc1 (stereo not shown) [Example 95] |
| 3.52 | 4.86 | Cc1ccc(C2CCC(c3ccccc3Cl)=N2)c(Cl)c1 (stereo not shown) [Example 38] |
| 1.86 |  | Cc1cc(Cl)ccc1C1CCC(=O)N1 (stereo not shown) [Example V-6] |
| 2.67 | 3.86 | Fc1ccc(C2CCC(c3ccccc3Cl)=N2)cc1F (stereo not shown) [Example 49] |
| 1.92 |  | O=C1CCC(c2ccc(Cl)c(Cl)c2)N1 (stereo not shown) [Example V-10] |
| 3.09 | 5.45 | Fc1ccccc1C1=NC(c2ccc(-c3ccc(OC(F)(F)F)cc3)cc2)CC1 (stereo not shown) [Example 4] |
| 1.43 |  | O=C1CCC(c2ccc(F)c(F)c2)N1 (stereo not shown) [Example V-13] |
